Results published in PMC9986241 (Signal Transduction and Targeted Therapy, 2023).
Values belong to the molecule of their own block, whether it stands above or below them.

What was measured:
Aurora-B(h) = biological target: T1, Aurora-B(h) (Homo sapiens, UniProt Q96GD4); assay: KinaseProfiler enzyme profiling; format: biochemical
T1 construct: purchased Eurofins KinaseProfiler
In short: (§1)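 A 70-kinase in vitro panel received erianin at 100 nM; measurements were repeated twice.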

Bmx(h) = biological target: T2, Bmx(h) (Homo sapiens, UniProt P51813); assay: KinaseProfiler enzyme profiling; format: biochemical
T2 construct: purchased Eurofins KinaseProfiler
In short: as §1

CDK7/cyclinH(h) = biological target: T3, CDK7/cyclinH(h) (Homo sapiens, UniProt P50613); assay: KinaseProfiler enzyme profiling; format: biochemical
T3 construct: purchased Eurofins KinaseProfiler
In short: as §1

CK1γ1(h) = biological target: T4, CK1γ1(h) (Homo sapiens, UniProt Q9HCP0); assay: KinaseProfiler enzyme profiling; format: biochemical
T4 construct: purchased Eurofins KinaseProfiler
In short: as §1

CK2(h) = biological target: T5, CK2(h) (Homo sapiens, UniProt P68400); assay: KinaseProfiler enzyme profiling; format: biochemical
T5 construct: purchased Eurofins KinaseProfiler
In short: as §1

CaMKIIβ(h) = biological target: T6, CaMKIIβ(h) (Homo sapiens, UniProt Q13554); assay: KinaseProfiler enzyme profiling; format: biochemical
T6 construct: purchased Eurofins KinaseProfiler
In short: as §1

EphB3(h) = biological target: T7, EphB3(h) (Homo sapiens, UniProt P54753); assay: KinaseProfiler enzyme profiling; format: biochemical; details: 100 nM
T7 construct: purchased Eurofins KinaseProfiler
In short: as §1

eEF-2K(h) = biological target: T8, eEF-2K(h) (Homo sapiens, UniProt O00418); assay: KinaseProfiler enzyme profiling; format: biochemical; details: 100 nM
T8 construct: purchased Eurofins KinaseProfiler
In short: as §1

A375 (BRAF V600E) = assay: Cell proliferation MTT assay; format: cell-based; details: Homo sapiens, A-375, 72 h
Experimental: (§2) The synergism and antagonism (CI value) were determined and analyzed using CompuSyn 1.0.
(§3) For cytotoxicity test, normal NHDF (5000 cells/well) and NHEM cell line (3000 cells/well) were planted into 96-well plates. For cell proliferation assay, A375 (1500 cells/well), SK-MEL-28 (3000 cells/well), SK-MEL-2 (4000 cells/well), and HCT116 (1500 cells/well) were planted into 96-well plates, determined concentration of drug was added after culture for 24 h. The viability of the cells was detected within 72 h using MTT solution (5 mg/mL). The absorbance at 570/490 nm was quantified by the use of the microplate reader.

HCT116 (KRAS mut) = assay: Cell proliferation MTT assay; format: cell-based; details: Homo sapiens, HCT-116, 72 h
Experimental: as §2, §3

SK-MEL-2 (NRAS mut) = assay: Cell proliferation MTT assay; format: cell-based; details: Homo sapiens, SK-MEL-2, 72 h
Experimental: as §2, §3

SK-MEL-28 (BRAF V600E) = assay: Cell proliferation MTT assay; format: cell-based; details: Homo sapiens, SK-MEL-28, 72 h
Experimental: as §2, §3

active CRAF (306-end) = biological target: T9, active CRAF (306-end) (Homo sapiens, UniProt P04049, Y340E/Y341E); assay: In vitro kinase assay (western blotting); format: biochemical; details: 12.5 to 50 nM, dose-dependent
T9 construct: purchased Signal Chem R01-13G
Experimental: (§4) After incubated with 100–400 μM ATP in kinase assay buffer for 30 min, the phosphorylation of the substrate/total substrate protein was detected by western blotting. For ADP-glo kinase assay, unconsumed ATP was depleted with the addition of ADP-Glo™. Followed by kinase detection reagent to convert ADP to ATP, consumption of ATP was detected to evaluate the kinase activity. For more details, refer to the manufacturer’s instructions of ADP-Glo™ Kinase Assay.

[1] = biological target: active GST-MEK1 full length (Homo sapiens, UniProt Q02750); assay: In vitro kinase assay (western blotting); format: biochemical; details: 12.5 to 50 nM, dose-dependent
Experimental: as §4

[2] = biological target: active GST-MEK2 full length (Homo sapiens, UniProt P36507); assay: In vitro kinase assay (western blotting); format: biochemical; details: 12.5 to 50 nM, dose-dependent
Experimental: as §4

BRAF = biological target: T10, BRAF (Homo sapiens, UniProt P15056, V600E); assay: Erianin-conjugated Sepharose 4B bead pull-down assay; format: binding; details: in vitro and ex vivo (A375 cell lysate)
T10 construct: endogenous in cells; host or cells: A375
Experimental: Cell lysate (500 μg) or recombinant proteins (200 ng) were incubated with erianin-CNBr activated sepharose 4B overnight at 4 °C, and the protein-beads complex was washed four times by the use of rotational incubator to remove non-specific binding. Western blotting was developed to check the pull-down bands.

[3] = test system: normal human dermal fibroblasts (NHDF); assay: Cytotoxicity MTT assay; format: cell-based; details: 0, 12.5, 25, 50 nM
Experimental: as §2, §3

[4] = test system: normal human epidermal melanocytes (NHEM); assay: Cytotoxicity MTT assay; format: cell-based; details: 0, 12.5, 25, 50 nM
Experimental: as §2, §3

[5] = test system: SK-MEL-2, A375, SK-MEL-28, and HCT 116; assay: Combination index assay; format: cell-based, human; details: erianin with vemurafenib; most of the CI; BRAF and RAS mutant cell lines
Experimental: as §2, §2

[6] = test system: colorectal cancer PDX harboring KRAS mutation; assay: Patient-derived xenograft (PDX); set-up: species or system NOD-SCID mice; details: mouse, in vivo
Source text: Figure S7. […] Tumor volume of (c). e Tumor weight of (c). f, h Changes of body weight after drug administration in melanoma and CRC PDX model. g, i HE staining of liver and spleen in melanoma PDX model. Scale bars: 200 μm.

[7] = test system: MAPK signaling pathway (phospho-CRAF, phospho-MEK1/2, phospho-ERK1/2); assay: Western blotting of MAPK signaling pathway in cells; details: both BRAF V600E and RAS mutant cell lines, 24 h
Source text: Data were shown as means ± S.D. of three independent experiments. The asterisks (*p < 0.05, **p < 0.01, ***p < 0.001) indicate a significant difference in the expression of phosphorylation of ERK1 or ERK2 vs total ERK1 or ERK2 in control and erianin-treated group. g The luminescent ADP detection assay was developed to detect the luminescence signal of ATP-to-ADP using the same concentration kinases and substrates described in above kinase assay.
Protein was quantified using a BCA assay kit and then western blotting was conducted.

CDK2/cyclinE(h) = biological target: T11, CDK2/cyclinE(h) (Homo sapiens, UniProt P24941); assay: KinaseProfiler enzyme profiling; format: biochemical
T11 construct: purchased Eurofins KinaseProfiler
In short: as §1

MST2(h) = biological target: T12, MST2(h) (Homo sapiens, UniProt Q13188); assay: KinaseProfiler enzyme profiling; format: biochemical
T12 construct: purchased Eurofins KinaseProfiler
In short: as §1

NEK1(h) = biological target: T13, NEK1(h) (Homo sapiens, UniProt Q96PY6); assay: KinaseProfiler enzyme profiling; format: biochemical
T13 construct: purchased Eurofins KinaseProfiler
In short: as §1

SAPK2a(h) = biological target: T14, SAPK2a(h) (Homo sapiens, UniProt Q16539); assay: KinaseProfiler enzyme profiling; format: biochemical
T14 construct: purchased Eurofins KinaseProfiler
In short: as §1

TAO2(h) = biological target: T15, TAO2(h) (Homo sapiens, UniProt Q9UL54); assay: KinaseProfiler enzyme profiling; format: biochemical
T15 construct: purchased Eurofins KinaseProfiler
In short: as §1

T10 sequence (P15056 whole entry V600E): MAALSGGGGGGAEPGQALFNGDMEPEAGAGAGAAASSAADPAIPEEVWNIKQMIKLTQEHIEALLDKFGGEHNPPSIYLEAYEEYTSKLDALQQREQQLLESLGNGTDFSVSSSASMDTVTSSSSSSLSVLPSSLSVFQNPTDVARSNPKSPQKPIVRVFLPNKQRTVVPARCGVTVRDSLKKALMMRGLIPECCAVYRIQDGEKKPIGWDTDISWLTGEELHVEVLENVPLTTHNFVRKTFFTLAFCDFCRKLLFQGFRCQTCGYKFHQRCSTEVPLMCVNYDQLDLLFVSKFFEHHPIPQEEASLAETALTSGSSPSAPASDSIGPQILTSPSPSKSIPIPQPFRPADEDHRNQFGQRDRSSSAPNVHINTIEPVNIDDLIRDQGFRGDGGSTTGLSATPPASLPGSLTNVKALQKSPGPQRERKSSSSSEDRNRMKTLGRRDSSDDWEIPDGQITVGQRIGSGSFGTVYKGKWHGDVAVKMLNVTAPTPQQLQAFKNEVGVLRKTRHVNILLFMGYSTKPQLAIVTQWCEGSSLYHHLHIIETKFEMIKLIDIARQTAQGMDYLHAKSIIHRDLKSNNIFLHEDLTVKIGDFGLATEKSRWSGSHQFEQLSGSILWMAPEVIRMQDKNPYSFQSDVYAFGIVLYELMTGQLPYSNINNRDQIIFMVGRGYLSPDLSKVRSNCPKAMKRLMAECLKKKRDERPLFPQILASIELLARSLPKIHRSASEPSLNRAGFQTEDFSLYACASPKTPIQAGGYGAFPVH
T3 sequence (P50613 whole entry): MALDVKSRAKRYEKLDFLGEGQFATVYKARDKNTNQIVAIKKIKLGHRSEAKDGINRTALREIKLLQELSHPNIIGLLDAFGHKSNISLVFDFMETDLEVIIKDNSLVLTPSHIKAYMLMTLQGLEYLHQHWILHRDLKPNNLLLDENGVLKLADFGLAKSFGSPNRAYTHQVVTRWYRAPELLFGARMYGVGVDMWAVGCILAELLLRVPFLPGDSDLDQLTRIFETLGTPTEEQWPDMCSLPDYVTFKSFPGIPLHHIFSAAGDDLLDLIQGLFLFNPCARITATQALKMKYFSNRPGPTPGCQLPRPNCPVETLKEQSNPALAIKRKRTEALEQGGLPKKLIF
T3 sequence (P51946 whole entry partner): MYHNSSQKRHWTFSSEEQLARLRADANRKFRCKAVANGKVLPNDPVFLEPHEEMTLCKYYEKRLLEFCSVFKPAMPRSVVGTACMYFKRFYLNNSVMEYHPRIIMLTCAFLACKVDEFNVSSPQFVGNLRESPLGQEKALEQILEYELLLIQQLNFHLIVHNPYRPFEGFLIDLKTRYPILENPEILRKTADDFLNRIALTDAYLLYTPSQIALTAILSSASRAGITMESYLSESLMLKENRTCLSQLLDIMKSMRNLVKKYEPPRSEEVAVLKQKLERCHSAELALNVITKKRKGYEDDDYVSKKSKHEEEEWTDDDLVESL
T3 sequence (P51948 whole entry partner): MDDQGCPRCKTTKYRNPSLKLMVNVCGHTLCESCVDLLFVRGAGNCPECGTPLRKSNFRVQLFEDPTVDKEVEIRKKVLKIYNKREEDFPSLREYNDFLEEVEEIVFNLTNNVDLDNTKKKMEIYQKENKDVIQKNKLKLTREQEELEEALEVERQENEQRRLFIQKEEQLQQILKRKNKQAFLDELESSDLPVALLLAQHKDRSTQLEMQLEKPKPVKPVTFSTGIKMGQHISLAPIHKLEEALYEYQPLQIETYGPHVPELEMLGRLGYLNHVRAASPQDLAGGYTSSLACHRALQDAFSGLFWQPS
T5 sequence (P68400 whole entry): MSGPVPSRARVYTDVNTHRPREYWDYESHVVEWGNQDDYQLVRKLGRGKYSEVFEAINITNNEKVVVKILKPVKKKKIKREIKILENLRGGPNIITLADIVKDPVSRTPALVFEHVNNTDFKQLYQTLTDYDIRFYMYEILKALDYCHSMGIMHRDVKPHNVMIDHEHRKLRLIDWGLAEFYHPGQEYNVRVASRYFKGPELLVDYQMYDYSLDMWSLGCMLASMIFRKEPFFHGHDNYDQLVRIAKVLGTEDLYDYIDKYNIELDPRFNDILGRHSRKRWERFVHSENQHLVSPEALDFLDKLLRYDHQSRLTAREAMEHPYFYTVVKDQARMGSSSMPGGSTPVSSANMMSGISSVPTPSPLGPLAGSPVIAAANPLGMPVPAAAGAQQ
T5 sequence (P67870 whole entry partner): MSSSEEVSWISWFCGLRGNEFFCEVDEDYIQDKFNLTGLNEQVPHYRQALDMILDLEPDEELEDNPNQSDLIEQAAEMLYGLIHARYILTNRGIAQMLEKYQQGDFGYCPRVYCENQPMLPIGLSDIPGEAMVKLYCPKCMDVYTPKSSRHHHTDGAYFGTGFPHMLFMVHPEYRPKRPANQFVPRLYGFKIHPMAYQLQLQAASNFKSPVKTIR
T12 sequence (Q13188 whole entry): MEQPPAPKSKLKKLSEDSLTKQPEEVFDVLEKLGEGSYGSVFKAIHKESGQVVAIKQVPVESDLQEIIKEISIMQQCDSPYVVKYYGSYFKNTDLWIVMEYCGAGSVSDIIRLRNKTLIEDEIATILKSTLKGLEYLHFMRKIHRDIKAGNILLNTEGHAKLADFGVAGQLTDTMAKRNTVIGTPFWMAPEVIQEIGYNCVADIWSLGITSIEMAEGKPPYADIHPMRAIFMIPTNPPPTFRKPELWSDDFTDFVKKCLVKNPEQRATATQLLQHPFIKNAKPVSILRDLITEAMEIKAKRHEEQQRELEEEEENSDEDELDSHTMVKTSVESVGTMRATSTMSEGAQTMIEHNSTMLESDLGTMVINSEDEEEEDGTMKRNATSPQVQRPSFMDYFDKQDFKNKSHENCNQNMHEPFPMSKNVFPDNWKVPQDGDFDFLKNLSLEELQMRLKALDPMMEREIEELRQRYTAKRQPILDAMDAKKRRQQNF
T14 sequence (Q16539 whole entry): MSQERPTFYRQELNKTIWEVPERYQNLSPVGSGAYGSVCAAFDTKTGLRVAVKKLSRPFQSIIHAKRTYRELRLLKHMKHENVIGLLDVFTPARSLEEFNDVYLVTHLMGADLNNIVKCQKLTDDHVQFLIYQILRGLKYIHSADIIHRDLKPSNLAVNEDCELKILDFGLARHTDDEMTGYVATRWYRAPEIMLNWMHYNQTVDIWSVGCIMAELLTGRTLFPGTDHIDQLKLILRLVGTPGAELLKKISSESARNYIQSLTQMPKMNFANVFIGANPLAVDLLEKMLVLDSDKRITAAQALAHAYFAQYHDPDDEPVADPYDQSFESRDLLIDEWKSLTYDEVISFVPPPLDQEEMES
active GST-MEK2 full length, sequence (P36507 whole entry): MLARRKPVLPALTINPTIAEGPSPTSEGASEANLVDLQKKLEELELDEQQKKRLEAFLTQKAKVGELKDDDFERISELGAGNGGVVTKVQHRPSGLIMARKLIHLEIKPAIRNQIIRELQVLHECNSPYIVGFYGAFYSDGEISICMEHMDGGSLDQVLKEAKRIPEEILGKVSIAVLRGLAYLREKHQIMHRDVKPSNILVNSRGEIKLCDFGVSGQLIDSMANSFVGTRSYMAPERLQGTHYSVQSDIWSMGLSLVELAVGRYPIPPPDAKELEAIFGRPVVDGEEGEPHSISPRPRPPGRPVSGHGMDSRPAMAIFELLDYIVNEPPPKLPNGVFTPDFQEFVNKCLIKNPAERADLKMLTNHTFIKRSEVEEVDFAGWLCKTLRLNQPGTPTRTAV
T15 sequence (Q9UL54 whole entry): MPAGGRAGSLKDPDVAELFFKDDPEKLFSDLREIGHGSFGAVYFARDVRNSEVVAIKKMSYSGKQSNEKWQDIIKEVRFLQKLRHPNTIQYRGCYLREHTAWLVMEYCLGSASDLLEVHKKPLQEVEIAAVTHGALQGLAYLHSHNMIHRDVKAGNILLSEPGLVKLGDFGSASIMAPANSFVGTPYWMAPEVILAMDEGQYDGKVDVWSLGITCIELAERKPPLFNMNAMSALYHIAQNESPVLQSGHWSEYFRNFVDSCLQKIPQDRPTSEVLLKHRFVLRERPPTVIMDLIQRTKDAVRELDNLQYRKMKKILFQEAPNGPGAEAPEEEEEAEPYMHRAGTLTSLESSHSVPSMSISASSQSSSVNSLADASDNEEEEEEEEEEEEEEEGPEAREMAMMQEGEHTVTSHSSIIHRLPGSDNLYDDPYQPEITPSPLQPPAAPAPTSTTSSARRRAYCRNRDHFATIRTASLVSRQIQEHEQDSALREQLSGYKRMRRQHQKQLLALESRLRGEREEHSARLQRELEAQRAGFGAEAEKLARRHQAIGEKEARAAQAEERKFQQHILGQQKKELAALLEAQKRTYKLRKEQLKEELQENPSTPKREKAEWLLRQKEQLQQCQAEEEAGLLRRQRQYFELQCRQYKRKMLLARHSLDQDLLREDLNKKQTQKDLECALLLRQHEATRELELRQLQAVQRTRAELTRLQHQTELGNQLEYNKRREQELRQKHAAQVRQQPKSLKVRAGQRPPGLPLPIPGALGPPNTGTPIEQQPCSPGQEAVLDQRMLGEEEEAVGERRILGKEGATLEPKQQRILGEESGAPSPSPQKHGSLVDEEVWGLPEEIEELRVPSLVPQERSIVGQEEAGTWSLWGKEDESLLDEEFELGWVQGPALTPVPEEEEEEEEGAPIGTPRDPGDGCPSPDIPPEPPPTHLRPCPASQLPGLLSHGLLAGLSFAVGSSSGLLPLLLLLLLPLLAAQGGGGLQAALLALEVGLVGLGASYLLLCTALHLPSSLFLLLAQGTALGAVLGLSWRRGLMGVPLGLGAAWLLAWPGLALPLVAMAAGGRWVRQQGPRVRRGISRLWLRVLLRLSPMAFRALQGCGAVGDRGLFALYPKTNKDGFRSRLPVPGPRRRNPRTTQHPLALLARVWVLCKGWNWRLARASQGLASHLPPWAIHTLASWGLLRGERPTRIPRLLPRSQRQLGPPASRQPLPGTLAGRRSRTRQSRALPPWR

activity at 10 µM (Aurora-B(h)): 86%
activity at 10 µM (Bmx(h)): 89%
activity at 10 µM (CDK7/cyclinH(h)): 92%
activity at 10 µM (CK1γ1(h)): 103%
activity at 10 µM (CK2(h)): 84%
activity at 10 µM (CaMKIIβ(h)): 104%
Structure (SMILES): COc1cc2oc(-c3ccc(O)c(O)c3)cc(=O)c2c(O)c1OC [Cirsiliol]

Structure (SMILES): COc1ccc(CCc2cc(OC)c(OC)c(OC)c2)cc1O [Erianin]
activity at 0.1 µM (EphB3(h)): 95%
activity at 0.1 µM (eEF-2K(h)): 91%
IC50 (A375 (BRAF V600E)): 12 ± 0.9 nM
IC50 (HCT116 (KRAS mut)): 20.6 ± 2.2 nM
IC50 (SK-MEL-2 (NRAS mut)): 59.7 ± 7.2 nM
IC50 (SK-MEL-28 (BRAF V600E)): 50.6 ± 1.7 nM
CRAF kinase activity (phosphorylation of MEK1) (active CRAF (306-end)): inhibited
MEK1 kinase activity (phosphorylation of ERK1) [1]: inhibited
MEK2 kinase activity (phosphorylation of ERK2) [2]: inhibited
binding in pull-down (BRAF): directly bound
cytotoxicity [3]: no toxicity
cytotoxicity [4]: no toxicity
combination index (CI) [5]: ≤ 1
toxicity in body weight [6]: low toxicity
tumor growth [6]: restrained tumor growth significantly
constitutive activation of MAPK signaling pathway [7]: inhibited constitutive activation of MAPK signaling pathway

activity at 10 µM (CDK2/cyclinE(h)): 57%
activity at 10 µM (MST2(h)): 54%
activity at 10 µM (NEK1(h)): 77%
activity at 10 µM (SAPK2a(h)): 141%
activity at 10 µM (TAO2(h)): 78%
Structure (SMILES): C=C1C(=O)[C@]23[C@H](O)[C@H]1CC[C@H]2[C@@]12CO[C@]3(O)[C@@H](O)[C@@H]1C(C)(C)CC[C@@H]2O [Oridonin]
